Measured values: patent publication US8278054B2, “Diagnosis of metal allergy through cytokine release by T-cells in vitro” (Mabtech AB, priority 2001, dated 2012)
“And” between values parts separate entries of the source, which are not always exact repeats. Equal values may be shown once.

Columns and labels:
[1] = tested on: ACD patients and control individuals; assay: Epicutaneous patch test; assay type: in vivo, human; details: 48 h
Procedure: Prior to the patch testing of the control group, blood samples for ELISpot analysis were taken to avoid an impact of the patch test on the ELISpot analysis. Epicutaneous patch tests using 5% NiSO4 in petrolatum was applied for 48 h whereafter the reaction, sites were inspected. […] All ACD patients were selected based on previous patch tests giving scores of 2+ or 3+ having 3+ as the highest score.
Prior to the patch testing of the control group, blood samples for ELISpot analysis were taken to avoid an impact of the patch test on the ELISpot analysis. Epicutaneous patch tests were applied for 48 h whereafter the reaction sites were inspected. […] This patient also gave a negative result in the ELISpot assay (see Table 2).

IL-4 producing PBMC = assay: IL-4 ELISpot assay; assay type: cell-based, human; details: for IL-4 producing cells/200 000 PBMC after stimulation with 50 μM NiCl2 / IL-4 producing cells/200 000 PBMC, 50-0 / IL-4 producing cells/200 000 PBMC after stimulation with 100 μM NiCl2 / IL-4 producing cells/200 000 PBMC, 100-0: one line per subject; for IL-4 producing cells/200 000 PBMC, 50-0: 50 μM NiCl2 after subtraction of spontaneous spots; for IL-4 producing cells/200 000 PBMC, 100-0: 100 μM NiCl2 after subtraction of spontaneous spots
Description: (§1) Blood from ACD patients or control individuals were obtained by venipuncture and collected in sterile heparinised glass vials. Peripheral blood mononuclear cells (PBMC) were separated by density gradient centrifugation over Ficoll-Hypaque. After separation, PBMC were washed twice in medium (RPMI 1640 containing glutamin, Hepes, Penicillin/Streptomycin and 10% fetal calf serum (FCS)) and used fresh for experiments. Alternatively, PBMC were frozen in 90% FCS and 10% dimethylsulfoxide and kept in liquid nitrogen until tested. Prior to being tested, frozen cells were thawed at 37° C. and medium was added dropwise whereafter the cells were washed twice with medium.
(§2) The PBMC were stimulated with various concentrations of NiCl2 and both proliferative responses and cytokine responses were analysed. NiCl2 at a stock concentration of 50 mM was mixed with medium and incubated for more than five minutes before being added to cells. PBMC diluted to a cell concentration of 4-6×10^6 cells/ml were mixed with an equal volume of NiCl2 diluted in medium resulting in a final concentration of 2×10^6 cells/ml and NiCl2 at concentrations ranging from 10-100 μM. The cell suspensions were incubated in plastic vials for 4 h at 37° C. in a humidified incubator. In parallel with incubating PBMC with NiCl2, PBMC at the same concentration were incubated with mitogen (1 μg phytohemagglutinin (PHA)/ml), control antigens (10 μg tetanus toxoid (TT) or purified protein derivative (PPD)/ml) or in the absence of stimuli.
Matched pairs of monoclonal antibodies (mAb) to human IL-4, IL-5 or IL-13 were used for the ELISpot assays (Mabtech AB, Stockholm, Sweden). For each pair, one mAb was used as a capture mAb: 82.4 (IL-4), TRFK5 (IL-5) and IL13-I (IL-13) and the other for detection, 12.1 (IL-4), 5A10 (IL-5) and IL13-II (IL-13). MAbs used for detection were biotinylated.
Ninetysix-well plates with polyvinylidene difluoride membranes (MAIPS45-10, Millipore) were treated with 100 μl of 70% EtOH for 2-10 min followed by six washes with 200 μl sterile deionized H2O. To each well, 100 μl of capture mAb at a concentration of 15 μg/ml in phosphate-buffered saline (PBS) was added and incubated over night at +4° C. The plates were washed three times with 200 μl or sterile PBS and three times with 200 μl medium containing 2% FCS. PBMC incubated for 4 h with or without stimuli in test tubes were suspended and 100 μl cell suspension (2×10^5 cells) was added to each well. After an additional incubation of 44 h, the wells were emptied and washed six times with 200 μl PBS. Biotinylated detection mAb at 1 μg/ml in PBS containing 0.5% FCS was added at a volume of 100 μl and incubated for 2 h at room temperature whereafter the wells were washed six times with PBS. Subsequently, 100 μl of SA-ALP (Streptavidin-Alkaline phosphatase, Mabtech) at 50 ng/ml in PBS with 0.5% FCS was added to each well and incubated for 1 h followed by washing in PBS six times before developing the wells with 100 μl nitroblue tetraxolium (NBT)/5-bromo-4-chloro-3-indolyl phosphate (BCIP) substrate (Sigma) for approximately 1 h. After rinsing the plates with tap water, the plates were dried and spots were counted using a light microscope.
(§3) Matched pairs of monoclonal antibodies (mAb) to human IL-4, IL-5, IL-13 or IFN-γ were used for ELISpot assays (Mabtech AB, Stockholm, Sweden). As in Example 4 above, for each pair, one mAb was used as a capture mAb and the other for detection. MAbs used for detection were biotinylated.
Ninetysix-well plates with polyvinylidene difluoride membranes (MAIPS45-10, Millipore) were treated with 100 μl of 70% EtOH for 2-10 min followed by six washes with 200 μl sterile deionized H2O. To each well, 100 μl of capture mAb at a concentration of 15 μg/ml in phosphate-buffered saline (PBS) was added and incubated over night at +4° C. The plates were washed three times with 200 μl or sterile PBS and three times with 200 μl medium containing 2% FCS. […]

IL-5 producing PBMC = assay: IL-5 ELISpot assay; assay type: cell-based, human; details: for IL-5 production in response to NiCl2 (ELISpot): 50 μM NiCl2, FIG. 1
Description: as §1, §2
(§4) Matched pairs of monoclonal antibodies (mAb) to human IL-4, IL-5 or IL-13 were used for the ELISpot assays (Mabtech AB, Stockholm, Sweden). […]
(§5) Ninetysix-well plates with polyvinylidene difluoride membranes (MAIPS45-10, Millipore) were treated with 100 μl of 70% EtOH for 2-10 min followed by six washes with 200 μl sterile deionized H2O. […] After rinsing the plates with tap water, the plates were dried and spots were counted using a light microscope. […]

IL-13 producing PBMC = assay: IL-13 ELISpot assay; assay type: cell-based, human; details: for IL-13 production in response to NiCl2 (ELISpot): 50 μM NiCl2, FIG. 1
Description: as §1, §2, §4, §5

IFN-γ producing PBMC = assay: IFN-γ ELISpot assay; assay type: cell-based, human; details: Kathon stimulation, spontaneous spots subtracted; allergic individuals, one line per patient
Procedure: Peripheral blood mononuclear cells (PBMC) were obtained from Kathon (methylisothiazolinone) allergy patients or control individuals as described in Example 2.
The PBMC were stimulated with Kathon (methylisothiazolinone) and cytokine responses were analysed.
as §3
Ninetysix-well plates with polyvinylidene difluoride membranes (MAIPS45-10, Millipore) were treated with 100 μl of 70% EtOH for 2-10 min followed by six washes with 200 μl sterile deionized H2O. To each well, 100 μl of capture mAb at a concentration of 15 μg/ml in phosphate-buffered saline (PBS) was added and incubated over night at +4° C. The plates were washed three times with 200 μl or sterile PBS and three times with 200 μl medium containing 2% FCS. PBMC incubated for 4 h with or without stimuli in test tubes were suspended and 100 μl cell suspension (2×10^5 cells) was added to each well. After an additional incubation of 44 h, the wells were emptied and washed six times with 200 μl PBS. […] After rinsing the plates with tap water, the plates were dried and spots were counted using a light microscope.

PBMC = assay: Proliferative response of PBMC (stimulation index); assay type: cell-based, human; details: one line per subject
Description: as §1
as §2, with “In parallel with incubating PBMC with NiCl2, PBMC at the same concentration were incubated with mitogen (1 μg phytohemagglutinin (PHA)/ml), control antigens (10 μg tetanus toxoid (TT) or purified protein derivative (PPD)/ml) or in the absence of stimuli.” left out

[2] = Kathon stimulation, spontaneous spots subtracted, allergic individuals, one line per patient
[3] = PBMC from allergic individuals (n=8)
[4] = PBMC from non-allergic individuals (n=7)

Cn1sccc1=O [Kathon, methylisothiazolinone]
Patch test response ([1]; Kathon (methylisothiazolinone), non-allergic controls): None of the controls responded positively
Number of responding cells (spots) per 200,000 cells, IL-4 (IL-4 producing PBMC; [2]): 14 spots per 200,000 cells and 21 spots per 200,000 cells and 0 spots per 200,000 cells and 3 spots per 200,000 cells
Number of responding cells (spots) per 200,000 cells, IL-5 (IL-5 producing PBMC; [2]): 3 spots per 200,000 cells and 5 spots per 200,000 cells and 0 spots per 200,000 cells and 2 spots per 200,000 cells
Number of responding cells (spots) per 200,000 cells, IL-13 (IL-13 producing PBMC; [2]): 51 spots per 200,000 cells and 50 spots per 200,000 cells and 0 spots per 200,000 cells and 19 spots per 200,000 cells
Number of responding cells (spots) per 200,000 cells, IFN-gamma (IFN-γ producing PBMC): 39 spots per 200,000 cells and 113 spots per 200,000 cells and 0 spots per 200,000 cells and 21 spots per 200,000 cells

[Cl][Ni][Cl] [NiCl2]
Proliferation (SI) (50 μM NiCl2) (PBMC; PBMC of allergic group): higher in the group of allergic individuals and 15.9 and 8.4 and 15.4 and 16.2 and 11.8 and 24.9 and 11.0 and 31.6 and 44.8 and 10.1 and 92.2
Proliferation (SI) (50 μM NiCl2) (PBMC; PBMC of non-allergic group): 3.1 (2×) and 0.9 and 1.2 and 2.0 and 3.3 and 6.8 and 5.1 and 8.2
IL-4 ELISpot mean values, allergic versus non-allergic group (IL-4 producing PBMC; 10 μM NiCl2, data not shown): higher mean values for the allergic group
IL-4 producing cells/200 000 PBMC after stimulation with 50 μM NiCl2 (IL-4 producing PBMC; allergic group): 137 cells/200 000 PBMC and 48 cells/200 000 PBMC and 19 cells/200 000 PBMC and 26 cells/200 000 PBMC and 127 cells/200 000 PBMC and 27 cells/200 000 PBMC and 60 cells/200 000 PBMC and 9 cells/200 000 PBMC and 8 cells/200 000 PBMC and 13 cells/200 000 PBMC and 23 cells/200 000 PBMC
IL-4 producing cells/200 000 PBMC after stimulation with 50 μM NiCl2 (IL-4 producing PBMC; non-allergic group): 3 cells/200 000 PBMC (2×) and 4 cells/200 000 PBMC (2×) and 9 cells/200 000 PBMC and 7 cells/200 000 PBMC and 1 cells/200 000 PBMC and 2 cells/200 000 PBMC (2×)
IL-4 producing cells/200 000 PBMC, 50-0 (IL-4 producing PBMC; allergic group): 134 cells/200 000 PBMC and 47 cells/200 000 PBMC and 17 cells/200 000 PBMC and 21 cells/200 000 PBMC (2×) and 118 cells/200 000 PBMC and 25 cells/200 000 PBMC and 55 cells/200 000 PBMC and 5 cells/200 000 PBMC and 7 cells/200 000 PBMC and 12 cells/200 000 PBMC
IL-4 producing cells/200 000 PBMC, 50-0 (IL-4 producing PBMC; non-allergic group): 1 cells/200 000 PBMC and 2 cells/200 000 PBMC and 4 cells/200 000 PBMC and 0 cells/200 000 PBMC (6×)
IL-4 producing cells/200 000 PBMC after stimulation with 100 μM NiCl2 (IL-4 producing PBMC; allergic group): 21 cells/200 000 PBMC and 28 cells/200 000 PBMC (2×) and 122 cells/200 000 PBMC and 30 cells/200 000 PBMC and 63 cells/200 000 PBMC and 16 cells/200 000 PBMC and 18 cells/200 000 PBMC and 24 cells/200 000 PBMC
IL-4 producing cells/200 000 PBMC after stimulation with 100 μM NiCl2 (IL-4 producing PBMC; non-allergic group): 5 cells/200 000 PBMC and 8 cells/200 000 PBMC (2×) and 4 cells/200 000 PBMC (2×) and 14 cells/200 000 PBMC and 1 cells/200 000 PBMC and 6 cells/200 000 PBMC
IL-4 producing cells/200 000 PBMC, 100-0 (IL-4 producing PBMC; allergic group): 19 cells/200 000 PBMC and 23 cells/200 000 PBMC (2×) and 113 cells/200 000 PBMC and 28 cells/200 000 PBMC and 58 cells/200 000 PBMC and 12 cells/200 000 PBMC and 17 cells/200 000 PBMC and 25 cells/200 000 PBMC
IL-4 producing cells/200 000 PBMC, 100-0 (IL-4 producing PBMC; non-allergic group): 3 cells/200 000 PBMC (2×) and 1 cells/200 000 PBMC (2×) and 5 cells/200 000 PBMC and 2 cells/200 000 PBMC and 0 cells/200 000 PBMC and 4 cells/200 000 PBMC
IL-5 production in response to NiCl2 (ELISpot) (IL-5 producing PBMC; [3]): shown to produce
IL-5 production in response to NiCl2 (ELISpot) (IL-5 producing PBMC; [4]): this was not seen
IL-13 production in response to NiCl2 (ELISpot) (IL-13 producing PBMC; [3]): shown to produce
IL-13 production in response to NiCl2 (ELISpot) (IL-13 producing PBMC; [4]): this was not seen

O=S(=O)([O-])[O-].[Ni+2] [NiSO4]
Patch test reactivity ([1]; 5% NiSO4 in petrolatum, non-allergic group, one line per subject): None of the controls responded positively
